# Data taken from US10844002B2, “Lipids and lipid compositions for the delivery of active agents” (priority 2014, dated 2020).
# Tests used:
# [1] = Characterization of LNP formulations: Z average particle diameter and polydispersity index; format: physicochemical; settings: LNP formulation; for Zav (nm): Z average particle diameter; for polydispersity: polydispersity index
# Text: The lipid nanoparticles have a size of about 1 to about 2,500 nm, about 1 to about 1,500 nm, about 1 to about 1,000 nm, in a sub-embodiment about 50 to about 600 nm, in a sub-embodiment about 50 to about 400 nm, in a sub-embodiment about 50 to about 250 nm, and in a sub-embodiment about 50 to about 150 nm. Unless indicated otherwise, all sizes referred to herein are the average sizes (diameters) of the fully formed nanoparticle, as measured by dynamic light scattering on a Malvern Zetasizer. The nanoparticle sample is diluted in phosphate buffered saline (PBS) so that the count rate is approximately 200-400 kcts. The data is presented as a weighted average of the intensity measure.
# RSV F protein = format: in vivo; settings: Table 4; BALB/c mice, intramuscular, 1 ng vA375 replicon in LNP, days 0 and 21
# [2] = Encapsulation efficiency of RNA replicons (Quant-iT RiboGreen); format: physicochemical; settings: LNP 40% cationic lipid, 10% DSPC, 48% cholesterol, 2% PEG-DMG; RNA replicon
# Procedure: Briefly, lipids were dissolved in ethanol (2m1), a RNA replicon was dissolved in buffer (2 ml, 100 mM sodium citrate, pH 6) and these were mixed with 2 ml of buffer followed by 1 hour of equilibration. The mixture was then dialized overnight against 1×PBS. The resulting product contained liposomes, with ˜70-95% encapsulation efficiency.
# The percentage of encapsulated RNA and RNA concentration were determined by Quant-iT RiboGreen RNA reagent kit (Invitrogen), following manufacturer's instructions. The ribosomal RNA standard provided in the kit was used to generate a standard curve. LNPs were diluted 10× or 100× in 1× TE buffer (from kit) before addition of the dye. Separately, LNPs were diluted 10× or 100× in 1× TE buffer containing 0.5% Triton X before addition of the dye (to disrupt the LNPs and thus to assay total RNA). Thereafter an equal amount of dye was added to each solution and then ˜180 μL of each solution after dye addition was loaded in duplicate into a 96 well tissue culture plate. The fluorescence (Ex 485 nm, Em 528 nm) was read on a microplate reader. All LNP formulations were dosed in vivo based on the encapsulated amount of RNA.
# [3] = Measurement of mRNA encapsulation in lipid nanoparticles (Quant-iT Ribogreen); format: physicochemical; settings: LNP cationic lipid/DSPC/cholesterol/stealth lipid, N:P 4:1, leptin mRNA
# Procedure: All equipment and disposable supplies are certified free of RNase activity by the manufacturer or rendered RNase free by use of the RNaseZap reagent (LifeTechnologies). mRNA is encapsulated at a cationic lipid amine to mRNA phosphate (N:P) molar ratio of 4:1. Lipids (cationic lipid, DSPC, cholesterol and lipidated PEG or stealth lipid) are dissolved in ethanol. The molar ratios are 40:10:38:2, respectively. The mixture is sonicated briefly, then gently agitated for 5 minutes and then maintained at 37° C. until use. mRNA is exchanged into citrate buffer pH 5.8-6.0 by use of Amicon Ultra-15 centrifugal concentrators, and the final concentration is adjusted to 0.5 mg/ml and held at 37° C. until use. An equal volume of lipids in ethanol, mRNA in citrate buffer, and citrate buffer alone are drawn into disposable syringes. Tubing leading from syringes containing lipids and mRNA are attached to the T junction, and tubing leading from the syringe containing citrate buffer alone is paired with the tubing exiting the T-junction over a collection vessel containing a stir bar on an active stir plate. Syringes are placed in a syringe pump set to expel contents at a flow rate of 1 ml per minute.
# The pump is activated, and the collected mRNA in lipid nanoparticles is transferred to SnakeSkin dialysis tubing (10,000 MWCO, Thermo Scientific). Material is dialyzed against RNAse- and pyrogen-free 1× phosphate buffered saline overnight at 4° C.
# Percent encapsulation of mRNA in lipid nanoparticles is determined using the Quant-iT Ribogreen RNA Assay kit (Life Technologies). The LNP-mRNA suspension is assayed in buffer (mRNA outside the particle), and buffer plus Triton X-100 detergent (total mRNA). The difference calculated is the mRNA inside the particle. Prepare a 1000 ng/mL stock from the RNA provided in the kit and use this to generate a standard curve (0 ng/ml, 15.63-1000 ng/ml) in TE and TE+0.75% Triton X-100. Prepare LNP-mRNA samples in TE buffer and TE buffer+0.75% Triton X-100 with appropriate dilution so that reading is in the range of standard curve (400-2,000 fold). In a 384-well plate (Costar non-treated #3573) add 0.04 ml of standard (in duplicate) or sample (in triplicate) per well. Dilute Ribogreen reagent 240-fold in TE buffer and add 0.06 ml per well. Mix contents of wells and measure fluorescence (excitation=480 nm, emission=520 nm). Subtract background values (no RNA) from standard and test sample values and determine the concentrations of RNA in the samples using the standard curves. Determine the percent encapsulation of the sample by dividing the difference in concentrations between sample+triton and sample in buffer alone by the sample+triton concentration.
Compound,Zav (nm) [1],polydispersity [1],"Log10(IgG titer), 1 ng RNA (RSV-F), 2 weeks post 2nd immunization (RSV F protein)",Encapsulation efficiency (RNA %) [2],% encapsulation (mRNA Leptin) [3]
"CCCCC/C=C\C/C=C\CCCCCCCCOc1cc(COC(=O)OCCCN(C)C)c(OCCCCCCCC/C=C\C/C=C\CCCCC)cc1C [Example 14, 3-(dimethylamino)propyl 4-methyl-2,5-bis((9Z,12Z)-octadeca-9,12-dien-1-yloxy)benzyl Carbonate]",127.7 nm,0.102,3.85,78.3%,77.9%
"CCCCC/C=C\C/C=C\CCCCCCCCOc1cc(COC(=O)CCCN(C)C)c(OCCCCCCCC/C=C\C/C=C\CCCCC)cc1C [Example 16, 4-methyl-2,5-bis((9Z,12Z)-octadeca-9,12-dien-1-yloxy)benzyl 4-(dimethylamino)butanoate]",115.5 nm,0.108,4.40,88.0%,85.1%
"CCCCC/C=C\C/C=C\CCCCCCCCOc1ccc(COC(=O)CCCN(C)C)c(OCCCCCCCC/C=C\C/C=C\CCCCC)c1 [Example 19, 2,4-bis((9Z,12Z)-octadeca-9,12-dienyloxy)benzyl 4-(dimethylamino)butanoate]",133.2 nm,0.074,4.68,79.9%,84.3%
